Test results taken from patent publication US20030110518A1, “Melanocortin-5 receptor sequences and uses thereof” (priority 2001, published 2003).

How the values were obtained:
[1] = target: canine melanocortin 5 receptor (canine); assay: cell-based or functional assay
canine MC5R [2] = target: T1, canine MC5R (Canis lupus familiaris, UniProt A0A8I3MI44); assay: Whole cell binding assay with radiolabeled NDP-MSH in transfected HEK293a cells; design: expressed in transfected cells; host or cells: HEK293 / HEK293a; conditions: 75 pM label, 37° C., 1 hour; clones nos. 9 and 13; FIG. 5
Experimental: Transient transfection & Whole Cell Binding Assay. A 50% confluent cell culture plate containing HEK293 cells is used for transient transfection with various vector constructs using Fugene 6 as a transfection carrier (4 μl Fugene 6 per μg plasmid DNA). Cells are harvested 48 hours post transfection using Sigma dissociation buffer (Sigma Chemical Co., St. Louis, Mo.), then centrifuged and resuspended in binding buffer (50 mM HEPES, 5 mM MgCl, 0.1% BSA, pH 7.5, containing a Sigma P-8340 protease inhibitor cocktail). The resuspended cell population is counted using a hemacytometer. A cell volume titration is performed by pipetting varying volumes in triplicate into tubes. Either buffer or excess cold NDP-MSH (2 μM final conc.) is added. Excess cold NDP-MSH is used to ascertain non-specific binding. Radiolabeled (^125I) NDP-MSH is added such that the final concentration is 75 pM. The reaction is incubated at 37° C. for 1 hour, and then the reaction mixture is centrifuged at 5000×g for 10 minutes. The supernatant solution is removed by aspiration and radioisotope remaining with the cell pellet is counted in a gamma counter. FIG. 5 discloses the specific NDP-MSH binding to five canine MC5R/HEK293a cells (shown as “C5#_” in FIG. 5).

canine MC5R [3] = target: T1, canine MC5R
Experimental: The following example discloses the measurement of canine MC5R-mediated cAMP accumulation in response to α-MSH stimulation.
As described above, MC5R, when activated by its agonist ligand, stimulates adenylyl cyclase to form cAMP. A commercially available kit (Adenylyl Cyclase Activation Flashplate Assay, NEN® Life Science Products, Inc., Boston, Mass., Cat # SMP004, SMP004A) is used to measure cAMP accumulation. An MC5R/HEK293 cell line is prepared. Cells are harvested using Sigma dissociation buffer, washed, centrifuged and resuspended in stimulation buffer, which is provided in the kit (Sigma Chemical Co., St. Louis, Mo.). The suspended cells are counted using a hemacytometer. Cells are pelleted again by centrifugation and resuspended with stimulation buffer to the desired concentration (0.5-5×10^6 cells per ml). A cell volume titration is performed by transferring varying volumes in triplicate into wells. For each cell concentration tested, a full agonist dose titration is performed, including a negative control. The agonists employed include [Nle^4,D-Phe^7]-α-MSH(NDP-MSH) and α-MSH. […]
The duration of stimulation by agonist is also varied (15-45 minutes). […] Stimulation of MC5R is determined by scillintation counting in a Wallac MICROBETA® scintillation counter (EG&G Wallac, Gaithersburg, Md.).

T1 sequence (A0A8I3MI44 1-325): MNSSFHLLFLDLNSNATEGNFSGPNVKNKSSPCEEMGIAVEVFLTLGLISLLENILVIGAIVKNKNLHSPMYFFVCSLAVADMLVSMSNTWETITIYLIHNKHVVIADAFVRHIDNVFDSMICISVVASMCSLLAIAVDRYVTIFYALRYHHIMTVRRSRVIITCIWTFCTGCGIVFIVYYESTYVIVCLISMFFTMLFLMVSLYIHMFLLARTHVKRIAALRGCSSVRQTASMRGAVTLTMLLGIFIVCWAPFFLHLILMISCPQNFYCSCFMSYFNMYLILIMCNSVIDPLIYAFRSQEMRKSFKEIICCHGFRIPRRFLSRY
Sequence of canine melanocortin 5 receptor (canine) (chain, as listed by the source limits assumed): as the sequence (A0A8I3MI44 1-325) above, with H100Y, G314A counted along it

Substance: α-melanocyte stimulating hormone (from UniProt P01189 138-150) (peptide)
- EC50 of cAMP accumulation (Adenylyl Cyclase Activation Flashplate Assay), clone C9 [1]: 5 nM
- fold stimulation of cAMP accumulation [1]: < 8 fold

Substance: [Nle4,D-Phe7]-α-MSH [NDP-MSH]
- specific binding of radiolabeled (125I) NDP-MSH to canine MC5R/HEK293a cells (canine MC5R [2]): high level of specific binding

Substance: α-melanocyte stimulating hormone [α-MSH]
- sensitivity of MC5R clones to α-MSH compared with a MC4R clone (canine MC5R [3]; both MC5R clones versus a MC4R clone): more sensitive
- stimulation of cAMP accumulation with α-MSH (canine MC5R [3]; three clones, FIG. 6): ≤ 8 fold
